Results on two compounds are retold here after patent US20070032409A1, “Bradykinin receptor antagonists and uses thereof” (VANDERBILT UNIVERSITY, priority 2005, published 2007).

For series [1] the following is noted: cited from earlier work.
In a further series the target is aminopeptidase M (Homo sapiens, UniProt P15144). Conditions: cited from earlier work.
The target of series [2] is T1, carboxypeptidase N (kininase I) (Homo sapiens, UniProt P15169).
T1 sequence (P15169 21-458): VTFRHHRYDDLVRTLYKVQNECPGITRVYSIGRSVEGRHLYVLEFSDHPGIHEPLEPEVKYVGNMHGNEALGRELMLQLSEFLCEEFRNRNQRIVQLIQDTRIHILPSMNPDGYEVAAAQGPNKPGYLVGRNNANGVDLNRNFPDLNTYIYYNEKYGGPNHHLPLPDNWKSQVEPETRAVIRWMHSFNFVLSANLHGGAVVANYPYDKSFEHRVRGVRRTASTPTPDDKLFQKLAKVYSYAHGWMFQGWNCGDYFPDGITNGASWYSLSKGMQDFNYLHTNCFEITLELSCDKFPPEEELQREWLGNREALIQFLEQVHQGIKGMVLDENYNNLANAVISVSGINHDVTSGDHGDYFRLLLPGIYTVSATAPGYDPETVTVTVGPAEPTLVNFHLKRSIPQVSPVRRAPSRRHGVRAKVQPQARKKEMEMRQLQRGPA
T1 sequence (P22792 22-545 partner): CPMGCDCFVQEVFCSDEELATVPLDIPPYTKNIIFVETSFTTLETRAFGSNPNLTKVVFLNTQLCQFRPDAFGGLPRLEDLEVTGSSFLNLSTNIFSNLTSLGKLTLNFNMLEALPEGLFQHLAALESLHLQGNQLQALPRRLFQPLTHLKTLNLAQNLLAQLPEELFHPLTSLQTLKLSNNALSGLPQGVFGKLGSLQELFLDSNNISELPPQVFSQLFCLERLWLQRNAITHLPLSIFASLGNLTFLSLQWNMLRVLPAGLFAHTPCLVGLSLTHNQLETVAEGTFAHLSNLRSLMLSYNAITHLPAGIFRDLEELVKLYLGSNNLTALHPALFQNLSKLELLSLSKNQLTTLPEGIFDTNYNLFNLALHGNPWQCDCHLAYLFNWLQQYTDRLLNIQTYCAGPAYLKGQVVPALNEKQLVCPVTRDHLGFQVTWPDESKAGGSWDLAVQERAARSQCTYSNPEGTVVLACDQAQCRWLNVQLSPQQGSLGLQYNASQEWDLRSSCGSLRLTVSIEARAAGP
The conditions noted are these: cited from earlier work.

The test system of a further series is bradykinin. Put plainly: Arterial bradykinin concentrations before and after protamine, enzyme immunoassay. Conditions: all patients; for bradykinin concentration after protamine: P=0.006.
For series [3], the target named is neutral endopeptidase 24.11 (Homo sapiens, UniProt P08473). Conditions: cited from earlier work.
Sequence of neutral endopeptidase 24.11 (P08473 whole entry, species assumed): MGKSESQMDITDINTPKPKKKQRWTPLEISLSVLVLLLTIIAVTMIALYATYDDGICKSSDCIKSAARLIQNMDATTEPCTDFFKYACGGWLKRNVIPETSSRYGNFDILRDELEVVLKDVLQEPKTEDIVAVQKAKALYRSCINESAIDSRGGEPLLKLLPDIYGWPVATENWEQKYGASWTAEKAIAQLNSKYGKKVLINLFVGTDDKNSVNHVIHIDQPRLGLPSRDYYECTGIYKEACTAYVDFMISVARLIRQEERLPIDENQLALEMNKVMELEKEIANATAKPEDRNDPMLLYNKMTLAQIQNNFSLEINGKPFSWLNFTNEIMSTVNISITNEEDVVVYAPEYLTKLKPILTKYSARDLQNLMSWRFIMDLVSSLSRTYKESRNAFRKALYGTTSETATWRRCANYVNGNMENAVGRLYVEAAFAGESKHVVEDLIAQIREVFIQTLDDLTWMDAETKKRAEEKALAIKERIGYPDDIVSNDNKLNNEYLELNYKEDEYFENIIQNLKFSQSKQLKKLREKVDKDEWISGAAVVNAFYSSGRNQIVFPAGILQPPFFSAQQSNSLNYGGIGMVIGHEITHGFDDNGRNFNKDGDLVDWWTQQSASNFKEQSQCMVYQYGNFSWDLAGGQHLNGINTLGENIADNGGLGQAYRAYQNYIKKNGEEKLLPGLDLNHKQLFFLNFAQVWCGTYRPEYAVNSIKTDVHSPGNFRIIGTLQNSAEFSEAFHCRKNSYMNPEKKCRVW
Series [4] addresses angiotensin-converting enzyme (ACE) (Homo sapiens, UniProt P12821). The conditions noted are these: cited from earlier work.
Series [5] has as its system adult patients undergoing elective cardiac surgery requiring CPB. Kind of series: Hemodynamic response (MAP, heart rate) to protamine infusion, double-blind randomized study. Type of series: in vivo, human. The method, then: The present inventors conducted a double-blind randomized study in sixteen adult male patients undergoing elective cardiac surgery requiring CPB and taking an angiotensin-converting enzyme inhibitor preoperatively. […] Mean arterial pressure (MAP) and tissue-type plasminogen activator (t-PA) activity were measured intraoperatively and before and after protamine.
Sixteen adult patients undergoing elective cardiac surgery requiring CPB and taking an ACE inhibitor preoperatively were studied. Patients were excluded if they had evidence of coagulopathy (INR greater than 1.7), underwent emergency surgery, underwent redo-CABG, had taken a glycoprotein IIb/IIIa antagonist within 2 days of surgery or had renal insufficiency (baseline creatinine>1.5 mg/dl). All patients provided written informed consent.

The subject of the next series is rats. The conditions noted are these: after i.v. bradykinin, endogenously-released kinins, induction of acute pancreatitis; cited from earlier work.
The test system of the next series is t-PA antigen. Kind of series: t-PA antigen in arterial blood, 2-site ELISA.
For series [6], the system named is bradykinin-induced hypotension. Conditions: correlated with antagonism of bradykinin-induced hypotension; cited from earlier work.
The subject of series [7] is pancreatitis-induced hypotension. The conditions noted are these: dog, in vivo; cited from earlier work.
For series [8], the system named is adult patients undergoing elective cardiac surgery requiring CPB. Put plainly: Safety: intra- and postoperative patient characteristics. Conditions: HOE 140 group N=8. Type of series: in vivo, human. The method, then: Patients were transfused according to the following guidelines: packed red blood cells (PRBC) were transfused for a hematocrit less than 20% during CPB and for a hematocrit less than 25% after CPB, CPB time >120 min, or evidence of end-organ dysfunction. Platelets were transfused in 5-U sets for ongoing microvascular bleeding despite a normalized ACT. Fresh frozen plasma (FFP) was given for continued bleeding only after platelets were given. Transfusion requirements were recorded from the beginning of surgery until hospital discharge.

In series [9] the test system is plasminogen activator inhibitor -1 (PAI-1) antigen. Kind of series: PAI-1 antigen in arterial blood, 2-site ELISA. The conditions noted are these: HOE 140 group N=8.
The subject of series [10] is hypotensive transgenic mice that harbor the B2 receptor. Conditions: mouse, in vivo; cited from earlier work.
Series [11] has as its system tissue factor and plasminogen activator inhibitor-1. The conditions noted are these: cited from earlier work.
Series [12] concerns vasodilation in response to exogenous bradykinin. The conditions noted are these: HOE 140 100 μg/kg; cited from earlier work.
Series [13] has as its system tissue-type plasminogen activator (t-PA) activity. Kind of series: t-PA activity in arterial blood, chromogenic substrate kit.
[14] abbreviates: protamine 250 mg over 8 min after CPB.
Setting [15] is: HOE 140 group N=8, mean±SD, in beats/min (unit assumed).

Like-named read-outs stand apart in the source and are kept apart here.

Sequence of angiotensin-converting enzyme (ACE) (P12821 30-1306, species assumed): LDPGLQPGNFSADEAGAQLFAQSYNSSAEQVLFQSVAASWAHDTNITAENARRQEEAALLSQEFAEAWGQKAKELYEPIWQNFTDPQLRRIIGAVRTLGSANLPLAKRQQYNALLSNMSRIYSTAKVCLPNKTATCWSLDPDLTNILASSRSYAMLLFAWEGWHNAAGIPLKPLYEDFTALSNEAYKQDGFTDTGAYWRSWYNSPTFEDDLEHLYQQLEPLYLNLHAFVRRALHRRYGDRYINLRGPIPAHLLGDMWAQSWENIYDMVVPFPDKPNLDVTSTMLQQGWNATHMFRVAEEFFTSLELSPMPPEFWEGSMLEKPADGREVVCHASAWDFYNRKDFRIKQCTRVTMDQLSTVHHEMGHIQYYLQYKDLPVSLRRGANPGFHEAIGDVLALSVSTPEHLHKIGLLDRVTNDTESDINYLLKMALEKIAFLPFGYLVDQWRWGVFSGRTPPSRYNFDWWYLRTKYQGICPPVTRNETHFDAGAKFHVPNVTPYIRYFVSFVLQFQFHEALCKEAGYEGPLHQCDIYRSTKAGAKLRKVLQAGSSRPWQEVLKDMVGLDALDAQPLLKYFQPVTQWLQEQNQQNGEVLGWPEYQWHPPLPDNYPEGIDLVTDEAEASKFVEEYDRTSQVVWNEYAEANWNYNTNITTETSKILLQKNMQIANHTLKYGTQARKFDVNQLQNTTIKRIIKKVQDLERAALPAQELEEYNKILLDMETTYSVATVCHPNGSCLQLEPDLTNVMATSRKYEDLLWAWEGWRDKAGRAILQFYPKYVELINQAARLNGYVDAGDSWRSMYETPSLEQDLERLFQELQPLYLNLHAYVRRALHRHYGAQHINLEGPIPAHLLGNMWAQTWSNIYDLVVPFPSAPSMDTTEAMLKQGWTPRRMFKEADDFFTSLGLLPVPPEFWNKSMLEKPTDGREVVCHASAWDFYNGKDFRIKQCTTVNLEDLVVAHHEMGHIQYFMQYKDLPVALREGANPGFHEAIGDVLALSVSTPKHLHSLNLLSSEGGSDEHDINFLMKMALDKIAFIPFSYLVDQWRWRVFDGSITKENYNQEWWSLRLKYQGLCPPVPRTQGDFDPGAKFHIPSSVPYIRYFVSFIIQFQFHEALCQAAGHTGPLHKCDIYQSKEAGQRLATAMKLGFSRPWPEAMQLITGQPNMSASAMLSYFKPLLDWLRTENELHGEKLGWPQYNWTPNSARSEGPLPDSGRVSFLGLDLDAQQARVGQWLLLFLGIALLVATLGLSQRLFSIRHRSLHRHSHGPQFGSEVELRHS
Sequence of aminopeptidase M (P15144 whole entry, species assumed): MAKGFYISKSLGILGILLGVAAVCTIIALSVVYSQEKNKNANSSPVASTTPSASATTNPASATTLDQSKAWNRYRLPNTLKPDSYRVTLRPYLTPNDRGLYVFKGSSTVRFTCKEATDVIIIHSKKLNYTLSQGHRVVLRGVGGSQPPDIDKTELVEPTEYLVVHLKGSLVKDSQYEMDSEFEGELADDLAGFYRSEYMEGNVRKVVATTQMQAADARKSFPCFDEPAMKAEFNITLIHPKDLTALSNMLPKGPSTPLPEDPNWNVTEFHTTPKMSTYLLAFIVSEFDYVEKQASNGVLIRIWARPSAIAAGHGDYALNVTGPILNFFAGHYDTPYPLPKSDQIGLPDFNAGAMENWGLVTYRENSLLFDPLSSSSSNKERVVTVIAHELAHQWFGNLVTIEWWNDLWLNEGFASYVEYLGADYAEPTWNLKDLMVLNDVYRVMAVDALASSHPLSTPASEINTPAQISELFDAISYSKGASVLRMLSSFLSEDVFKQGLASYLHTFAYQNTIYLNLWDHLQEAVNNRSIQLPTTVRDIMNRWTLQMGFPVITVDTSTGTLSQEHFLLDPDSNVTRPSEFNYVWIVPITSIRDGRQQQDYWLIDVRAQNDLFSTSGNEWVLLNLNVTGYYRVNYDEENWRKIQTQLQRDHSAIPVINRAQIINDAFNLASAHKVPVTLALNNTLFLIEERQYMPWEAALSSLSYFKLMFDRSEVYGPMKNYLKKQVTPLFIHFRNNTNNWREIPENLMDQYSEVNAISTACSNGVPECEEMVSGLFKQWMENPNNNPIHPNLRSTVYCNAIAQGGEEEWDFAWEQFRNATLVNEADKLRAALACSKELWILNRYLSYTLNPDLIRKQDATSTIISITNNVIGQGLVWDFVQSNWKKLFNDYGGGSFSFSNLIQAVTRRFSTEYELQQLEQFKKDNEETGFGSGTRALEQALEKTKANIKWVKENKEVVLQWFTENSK

Regarding “Protamine: highly basic polycationic polypeptide given at the end of CPB to reverse the anticoagulation effects of heparin (SEQ ID NO:1) (MARYRCCRSQSRSRYYRQRQRSRRRRRRSCQTRRRAMRCCRPRYRPRCRRH)”, in series [1] (after i.v. administration), the “time to neutralization of heparin” value is no more than 5 min. In addition, the “heparin activity neutralized per mg of protamine sulfate” value in series [1] (heparin derived from intestinal mucosa) is listed as “about 115 USP units”; in series [1] (heparin derived from lung tissue) it was “approximately 90 USP units”. Also, the “inhibition of aminopeptidase M” value in the series with aminopeptidase M is listed as “does not inhibit”. Also, the “inhibition of carboxypeptidase N (kininase I)” value in series [2] is listed as “inhibits”. Moreover, the “bradykinin concentration before protamine” value amounted to 6.3±4.3 finol/ml in the series on bradykinin and 6.3 ± 4.3 fmol/mL in the series with bradykinin (setting [14]). The “bradykinin concentration after protamine” value was 12.2±9.8 finol/ml in the series with bradykinin and 12.2 ± 9.8 fmol/mL in the series with bradykinin (setting [14]). Moreover, in series [3], the “inhibition of neutral endopeptidase 24.11” value was “does not inhibit”. Further, in series [4], the “inhibition of angiotensin-converting enzyme (ACE)” value was “does not inhibit”.
Regarding `NC(N)=NCCC[C@@H](N)C(=O)N[C@@H](CCCN=C(N)N)C(=O)N1CCC[C@H]1C(=O)N1C[C@H](O)C[C@H]1C(=O)NCC(=O)N[C@@H](Cc1cccs1)C(=O)N[C@@H](CO)C(=O)N1Cc2ccccc2C[C@@H]1C(=O)N1[C@H](C(=O)N[C@@H](CCCN=C(N)N)C(=O)O)C[C@@H]2CCCC[C@@H]21` [HOE 140], the “MAP during protamine infusion (nadir)” value in series [5] (HOE 140 100 μg/kg i.v. before protamine, N=8, mean±SD) amounted to 69.6±3.4 mmHg. The “MAP at the start of the protamine infusion (pre-protamine)” value in series [5] (HOE 140 100 μg/kg i.v. over one-half hour at end of CPB before protamine, N=8, mean±SD) was 74.3±10.6 mmHg. In [5] (setting [15]), the “heart rate after protamine” value was 81.0±14.0 and the “heart rate prior to protamine” value is reported as 91.4±9.5. Further, the “effect on decrease in MAP during protamine infusion” value in [5] (P=0.022, ANOVA, versus saline) is reported as “significantly blunted”. For the same compound, the “reduction of mean arterial pressure by protamine” value in series [5] (in the presence of HOE 140) is given as “about 6%”. Besides, in the series on rats, the “effect on decreases in blood pressure” value is “blocks”. Moreover, in the series on t-PA antigen (HOE 140 group N=8), the “t-PA antigen after protamine administration” value came to 22.7 ± 9.1 ng/mL and the “t-PA antigen after study drug infusion, before protamine” value was 20.1 ± 6.1 ng/mL. For the same compound, the “t-PA antigen before study drug infusion” value in the series with t-PA antigen (HOE 140 group, intraoperative, N=8) was 23.4 ± 12.6 ng/mL. Further, the “effect on blood pressure” value in [6] is “increased blood pressure”. Further, in series [7], the “effect on pancreatitis-induced hypotension” value is “improvement of the hypotension in some animals”; the “effect on release of bradykinin and beta-endorphin” value was “inhibited”. Moreover, in series [8], the “CT 4 hours (chest tube output)” value was found to be 299.4 ± 233.0 mL, the “CT 24 hours (chest tube output)” value is reported as 759.6 ± 276.4 mL, the “Fresh frozen plasma transfusion” value worked out at 0.4 ± 1.1 Units and the “New onset atrial fibrillation” value is recorded as 1(12.5) N(%). In addition, in series [8], the PRBC transfusion turned out to be 4.4 ± 4.0 Units, the Platelet transfusion is 275 ± 177 mL and the “Time to extubation >10 hours” value is listed as 2(25) N(%). In addition, in series [9], the “PAI-1 antigen after protamine administration” value stood at 27.4 ± 15.5 ng/mL, the “PAI-1 antigen before protamine administration” value came out at 20.2 ± 17.1 ng/mL and the “PAI-1 antigen on postoperative day 1” value was 32.4 ± 10.1 ng/mL. The “effect on blood pressure” value in series [10] is “restoring blood pressure to normal levels”. Also, the “effect on bradykinin-increased expression of tissue factor and PAI-1” value in [11] is “suppressed”. The “effect on vasodilation in response to exogenous bradykinin” value in [12] was “prevents vasodilation”. For the same compound, the “t-PA activity, intraoperative” value in series [13] (60 min after initiation of CPB, prior to receiving HOE 140, N=8) was determined as 3.59±0.88 IU/ml. The “t-PA activity, pre-protamine” value in series [13] (after HOE 140 administration (100 μg/kg i.v.), before protamine, N=8) is listed as 1.67±1.18 IU/ml. The “t-PA activity, post-protamine” value in [13] (after protamine infusion in HOE 140 group, N=8) came out at 0.77±0.74 IU/ml. Moreover, in series [13] (before initiation of CPB, prior to HOE 140, N=8), the “t-PA activity, baseline” value is reported as 0.42±0.29 IU/ml. The “change in t-PA activity” value in series [13] (during HOE 140 administration, P=0.036 compared to saline) is −1.92±0.94 IU/ml.
